Converted amounts (≈) assume the structure as drawn. The source made the active and inactive calls. The rule behind the calls is not given here.
Experiments:
[1] = system: Mycobacterium tuberculosis; test: Antimycobacterial activity against Mycobacterium tuberculosis clinical isolate assessed as growth inhibition after 28 days; format: functional, organism-based
[2] = system: Mycobacterium tuberculosis; test: Antimycobacterial activity against Mycobacterium tuberculosis H37Rv […] assessed as confluent growth at 50 ug/ml after 28 days by Lowenstein-Jensen method; format: functional, organism-based
[3] = system: Mycobacterium tuberculosis; test: Antimycobacterial activity against Mycobacterium tuberculosis H37Rv […] assessed as confluent growth at 200 ug/ml after 28 days by Lowenstein-Jensen method; format: functional, organism-based
[4] = system: Mycobacterium tuberculosis; test: Antimycobacterial activity against Mycobacterium tuberculosis clinical isolate assessed as growth inhibition after 5 days by microplate Alamar blue assay; format: functional; conditions: 120 h
[5] = system: Mycobacterium tuberculosis; test: Antimycobacterial activity against Mycobacterium tuberculosis H37Rv […] assessed as bacterial colonies at 200 ug/ml after 28 days by Lowenstein-Jensen method; format: functional
[6] = system: Mycobacterium tuberculosis; test: Antimycobacterial activity against Mycobacterium tuberculosis H37Rv […] assessed as bacterial colonies at 50 ug/ml after 28 days by Lowenstein-Jensen method; format: functional
[7] = molecular target: Neuronal acetylcholine receptor; alpha4/beta2 (Homo sapiens) (UniProt P17787+P43681); test: Displacement of [3H]cytisine from human recombinant alpha4beta2 nACh receptor expressed in human SH-SY5Y cells at 1 X 10^-8 M to 1 X 10^-7 M; format: cell-based
[8] = system: Mycobacterium tuberculosis; test: Antimycobacterial activity against Mycobacterium tuberculosis H37Rv […] assessed as growth inhibition at 0.2 ug/ml after 28 days by Lowenstein-Jensen method; format: functional, organism-based
[9] = system: Mycobacterium tuberculosis; test: Antimycobacterial activity against Mycobacterium tuberculosis H37Rv […] assessed as growth inhibition at 40 ug/ml after 28 days by Lowenstein-Jensen method; format: functional, organism-based
[10] = Cmax in Wistar rat at 5 mg/kg, po; format: ADME, organism-based; set-up: dose 5 mg/kg, route oral; conditions: in vivo
[11] = Tmax in Wistar rat at 5 mg/kg, po; format: ADME, organism-based; conditions: in vivo
[12] = Half life in Wistar rat at 5 mg/kg, po; format: ADME, organism-based; conditions: in vivo
Rattus norvegicus = test: Volume of distribution in Wistar rat at 5 mg/kg, po; format: ADME, organism-based; conditions: in vivo
[13] = Cmax in Wistar rat at 5 mg/kg, iv; format: ADME, organism-based; set-up: dose 5 mg/kg, route intravenous; conditions: in vivo
[14] = Tmax in Wistar rat at 5 mg/kg, iv; format: ADME, organism-based; conditions: in vivo
[15] = Half life in Wistar rat at 5 mg/kg, iv; format: ADME, organism-based; conditions: in vivo
[16] = Volume of distribution in Wistar rat at 5 mg/kg, iv; format: ADME, organism-based; conditions: in vivo
[17] = Acute toxicity in po dosed overnight fasted Wistar rat; format: organism-based; conditions: in vivo
[18] = Toxicity in Wistar rat administered qd via oral gavage with repeated dose for 28 days; format: organism-based; conditions: in vivo
[19] = Half life in po dosed Wistar rat plasma

| SMILES | Activity [1] | growth inhibition (GI) [2] | growth inhibition (GI) [3] | Activity [5] | inhibition [7] | further results |
| --- | --- | --- | --- | --- | --- | --- |
| CN1CCC(C(=O)c2cncc(-c3cccc(F)c3)c2)C1=O (stereo not given) | inactive | inactive | inactive | – | – | – |
| CN1CCC(C(=O)c2cncc(-c3cc(Cl)ccc3Cl)c2)C1=O (stereo not given) | – | – | – | – | – | MIC [4]: 0.286 µM (≈ 100 ng/mL) |
| CN1CCC(C(=O)c2cncc(-c3ccc4ccccc4c3)c2)C1=O (stereo not given) | inactive | inactive | – | >100 | – | – |
| CN1CCC(C(=O)c2cncc(-c3ccc(Cl)cc3Cl)c2)C1=O (stereo not given) | – | – | – | – | – | MIC [4]: 0.00286 µM (≈ 0.999 ng/mL) |
| CN1CCC(C(=O)c2cncc(-c3cccc4ccccc34)c2)C1=O (stereo not given) | inactive | inactive | inactive | – | – | – |
| CC(=O)Oc1ccc(-c2cncc(C(=O)C3CCN(C)C3=O)c2)cc1 (stereo not given) | inactive | – | – | >100 | inactive | Activity [6]: >100 |
| CC(=O)c1cccc(-c2cncc(C(=O)C3CCN(C)C3=O)c2)c1 (stereo not given) | inactive | inactive | – | >100 | – | – |
| CN1CCC(C(=O)c2cncc(-c3ccc(C=O)cc3)c2)C1=O (stereo not given) | inactive | inactive | – | >100 | – | – |
| NNC(=O)c1ccncc1 [ISONIAZID] | – | – | – | – | – | MIC [4]: 0.00145 µM (≈ 0.199 ng/mL); growth inhibition (GI) [8]: Active |
| CN1CCC(C(=O)c2cncc(-c3cccc(C=O)c3)c2)C1=O (stereo not given) | inactive | inactive | inactive | >100 | inactive | – |
| CN1CCC(C(=O)c2cncc(-c3cccc(Cl)c3Cl)c2)C1=O (stereo not given) | – | – | – | – | – | MIC [4]: 0.0093 µM (≈ 3.25 ng/mL) |
| CN1CCC(C(=O)c2cncc(-c3ccccc3)c2)C1=O (stereo not given) | inactive | inactive | inactive | – | < 10% | – |
| CN1CCC(C(=O)c2cncc(-c3cccc(N)c3)c2)C1=O (stereo not given) | inactive | inactive | inactive | – | – | – |
| COc1cccc(-c2cncc(C(=O)C3CCN(C)C3=O)c2)c1 (stereo not given) | inactive | inactive | inactive | – | inactive | – |
| CN1CCC(C(=O)c2cncc(-c3ccc(Cl)c(Cl)c3)c2)C1=O (stereo not given) | – | – | – | – | – | MIC [4]: 0.179 µM (≈ 62.5 ng/mL) |
| CN1CCC(C(=O)c2cncc(-c3cccc([N+](=O)[O-])c3)c2)C1=O (stereo not given) | inactive | inactive | – | >100 | inactive | – |

| SMILES | Activity [1] | growth inhibition (GI) [2] | growth inhibition (GI) [3] | Activity [5] | inhibition [7] | further results |
| --- | --- | --- | --- | --- | --- | --- |
| Cc1cccc(-c2cncc(C(=O)C3CCN(C)C3=O)c2)c1 (stereo not given) | inactive | – | – | >100 | < 10% | Activity [6]: >100 |
| Cc1ccccc1-c1cncc(C(=O)C2CCN(C)C2=O)c1 (stereo not given) | inactive | inactive | inactive | – | – | – |
| CO[C@H]1/C=C/O[C@@]2(C)Oc3c(C)c(O)c4c(O)c(c(/C=N/N5CCN(C)CC5)c(O)c4c3C2=O)NC(=O)/C(C)=C\C=C\[C@H](C)[C@H](O)[C@@H](C)[C@@H](O)[C@@H](C)[C@H](OC(C)=O)[C@@H]1C | – | – | – | – | – | growth inhibition (GI) [9]: Active |
| CN1CCC(C(=O)c2cncc(-c3ccc(F)cc3)c2)C1=O (stereo not given) | inactive | inactive | inactive | – | inactive | – |
| CN1CCC(C(=O)c2cncc(-c3cccc(O)c3)c2)C1=O (stereo not given) | inactive | inactive | inactive | – | inactive | – |
| CN1CCC(C(=O)c2cncc(-c3cc(Cl)cc(Cl)c3)c2)C1=O (stereo not given) | inactive | – | – | >100 | inactive | Activity [6]: >100; MIC [4]: 0.0286 µM (≈ 10 ng/mL); Cmax [10]: 2860 ng/mL; Tmax [11]: 1 h; half-life [12]: > 24 h; Vd (Rattus norvegicus): 27.36 L; Cmax [13]: 3370 ng/mL; Tmax [14]: 3 min; half-life [15]: 24 h; Vd [16]: 23.2 L; LD50 [17]: > 2000 mg/kg; LD50 at 672 h [18]: > 2000 mg/kg |
| CN1CCC(C(=O)c2cncc(C3CC3)c2)C1=O (stereo not given) | inactive | inactive | inactive | – | inactive | – |
| CCCCc1cncc(C(=O)C2CCN(C)C2=O)c1 (stereo not given) | inactive | inactive | inactive | – | inactive | – |
| CN1CCC(C(=O)c2cncc(-c3ccc(Cl)cc3)c2)C1=O (stereo not given) | inactive | inactive | inactive | – | – | – |
| CC(=O)c1ccc(-c2cncc(C(=O)C3CCN(C)C3=O)c2)s1 (stereo not given) | inactive | inactive | inactive | – | inactive | – |
| COc1ccccc1-c1cncc(C(=O)C2CCN(C)C2=O)c1 (stereo not given) | inactive | inactive | inactive | – | – | – |
| CN1CCC[C@H]1c1cccnc1 [NICOTINE] | – | – | – | – | – | half-life [19]: 2 h |
| CN1CCC(C(=O)c2cncc(-c3ccccc3Cl)c2)C1=O (stereo not given) | inactive | inactive | – | >100 | – | – |
| Cc1ccc(-c2cncc(C(=O)C3CCN(C)C3=O)c2)cc1 (stereo not given) | inactive | inactive | inactive | – | – | – |
| COc1ccc(-c2cncc(C(=O)C3CCN(C)C3=O)c2)cc1 (stereo not given) | inactive | inactive | – | >100 | inactive | – |

From ChEMBL document CHEMBL3774391, “Novel nicotine analogues with potential anti-mycobacterial activity” (Bioorg Med Chem, 2016)
